Data reported in publication PMC12596218 (Journal of Lipid Research, 2025).

Target: T1, ASBT (Homo sapiens, UniProt Q12908)
T1 construct: stably transfected with the full open reading frames of human NTCP, ASBT, SOAT, OATP1B1, OATP1B3, OATP2B1, and murine Asbt (mAsbt); expressed in transfected cells; host or cells: HEK293 (Flp-In), stably transfected, tetracycline-induced
T1 sequence (Q12908 1-348): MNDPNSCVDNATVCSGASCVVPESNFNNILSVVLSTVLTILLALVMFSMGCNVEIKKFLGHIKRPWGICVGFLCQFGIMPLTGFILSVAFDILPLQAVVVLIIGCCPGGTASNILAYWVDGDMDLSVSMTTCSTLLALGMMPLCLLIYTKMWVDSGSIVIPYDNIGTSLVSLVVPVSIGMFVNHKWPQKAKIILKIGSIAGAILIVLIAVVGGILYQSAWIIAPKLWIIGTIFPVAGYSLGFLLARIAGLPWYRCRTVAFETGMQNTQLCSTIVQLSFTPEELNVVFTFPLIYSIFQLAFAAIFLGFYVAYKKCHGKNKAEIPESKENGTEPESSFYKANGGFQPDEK
Experiment: Transport inhibition and recovery assay (inhibitor washout) in ASBT-HEK293 cells
Type: cell-based
Conditions: 3 μM inhibitor, 5 min preincubation, 10 min uptake of 1 μM [3H]TC

**Q.** For `CCCC[C@]1(CC)CS(=O)(=O)c2cc(CNC(CC(=O)O)CC(=O)O)c(OC)cc2[C@@H](c2ccccc2)N1` [linerixibat], which “ASBT inhibition with inhibitor present during uptake (inhibitor + [3H]TC)” value is on record?
**A.** The value was “full ASBT inhibition”.
